Assay results: US20150273020A1, “Hormone Normalization Therapy and Uses Therefor” (priority 2007, published 2015)

Experiments:
[1] = tested on: follicular growth to ovulation; conditions: Schoemaker study; cited from earlier work
[2] = woman given daily FSH injections at a given dosage; cited from earlier work
[3] = tested on: patient with diminished ovarian reserve; test: Case of a low-responder patient: FSH needed to ovulate, with and without estradiol patch and low dose hCG; assay type: in vivo, human
Protocol: To ovulate a single follicle, they required a follicle stimulating hormone level of 18 IU/L, with a typical threshold value of FSH required for a regularly cycling young and healthy woman in the range of 5 IU/L or less. This patient was also characterized by their physician as a low responder to FSH, which refers to a patient who requires high follicle stimulating hormone doses to ovulate even a single follicle. […] In the first two menstrual cycles, the patient was treated using the method as described supra, with a high dose follicle stimulating hormone (FSH) at a total dosage of FSH at about 5,000 IU across the cycle with very high threshold dosage and threshold peak follicle stimulating hormone levels like that of an AMA person with high FSH, in the first cycle and second cycle to induce follicle growth to the ovulatory stage. In the third consecutive treatment cycle, the above-described regimen was supplemented with an estradiol patch delivering 17-beta estradiol for several days until the commencement of stimulation with FSH medication. The patch was then continued daily during the period of stimulated until the evening before expected hCG injection, when it was removed. This was designed to coincide to approximate the timing of the estradiol surge. […]

## follicle stimulating hormone
[1]
  threshold level of serum FSH for follicular growth to ovulation: 7.8 IU
[2]
  time for steady-state levels of FSH to be established: 4 days
[3]; COHS cycle, severe GnRHa suppression
  follicle stimulating hormone level required to ovulate a single follicle: 18 IU/L
[3]; first and second cycles, without estradiol and hCG supplementation
  total dosage of FSH across the cycle to induce follicle growth to the ovulatory stage: about 5,000 IU
